In ChEMBL document CHEMBL3045077, “Intravenous pharmacokinetics and oral bioavailability of biochanin A in female rats” (Med Chem Res, 2011):

How the values were obtained:
Type in all cases: ADME, organism-based
[1] = Total clearance in Rattus norvegicus Sprague-Dawley (rat) at 5 mg/kg, iv; design: dose 5 mg/kg, route intravenous; settings: in vivo
[2] = Apparent elimination half life in Rattus norvegicus Sprague-Dawley (rat) at 5 mg/kg, iv; design: dose 5 mg/kg, route intravenous; settings: in vivo, read-out: betat1/2(app) (converted)
[3] = Apparent elimination half life in Rattus norvegicus Sprague-Dawley (rat) at 50 mg/kg, po; design: dose 50 mg/kg, route oral; settings: in vivo, read-out: betat1/2(app) (converted)
[4] = Apparent volume of distribution in Rattus norvegicus Sprague-Dawley (rat) at 5 mg/kg, iv; design: dose 5 mg/kg, route intravenous; settings: in vivo, read-out: Vd(app)

clearance [1]: 262 mL/min/kg | half-life [2]: 1 h | half-life [3]: 13.7 h | Vd [4]: 10.6 L/kg
Structure (SMILES): COc1ccc(-c2coc3cc(O)cc(O)c3c2=O)cc1 [BIOCHANIN]
